In patent US10030020B2, “Spirocycle compounds and methods of making and using same” (Abide Therapeutics, Inc., priority 2016, dated 2018):

Legend:
[1] = target: T1, MAGL (Mus musculus (Mouse), UniProt O35678); test: In vitro competitive activity-based protein profiling (mouse brain membrane fraction or cell lysates), MAGL band; assay type: biochemical; conditions: mouse proteome; for inhibition at 1 µM: read-out: MAGL % Inh 1 μM (mouse); for IC50: competitive ABPP
Experimental: In Vitro Competitive Activity-Based Protein Profiling.
Proteomes (mouse brain membrane fraction or cell lysates) (50 μL, 1.0 mg/mL total protein concentration) were preincubated with varying concentrations of inhibitors at 37° C. After 30 min, FP—Rh (1.0 μL, 50 μM in DMSO) was added and the mixture was incubated for another 30 min at 37° C. Reactions were quenched with SDS loading buffer (50 μL-4×) and run on SDS-PAGE.

[2] = target: T2, ABHD6 (Mus musculus (Mouse), UniProt Q8R2Y0); test: In vitro competitive activity-based protein profiling (mouse brain membrane fraction or cell lysates), ABHD6 band; assay type: biochemical; conditions: mouse proteome; for inhibition at 1 µM: read-out: ABHD6 % Inh 1 μM (mouse); for IC50: competitive ABPP
T2 sequence (Q8R2Y0 whole entry): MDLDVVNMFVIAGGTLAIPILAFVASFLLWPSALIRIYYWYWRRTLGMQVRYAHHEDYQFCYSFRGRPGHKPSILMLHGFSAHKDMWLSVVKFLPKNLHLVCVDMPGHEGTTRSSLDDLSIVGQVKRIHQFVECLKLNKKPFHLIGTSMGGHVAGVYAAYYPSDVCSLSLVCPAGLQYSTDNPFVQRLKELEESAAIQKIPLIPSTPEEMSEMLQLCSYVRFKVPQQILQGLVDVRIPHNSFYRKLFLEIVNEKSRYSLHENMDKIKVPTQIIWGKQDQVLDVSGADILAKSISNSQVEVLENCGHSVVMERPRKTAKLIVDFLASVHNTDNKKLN
Method in brief: (§1)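 Mouse proteome samples (brain membrane fraction or cell lysate, 1.0 mg/mL protein) were pretreated with varying inhibitor concentrations and subsequently probed with fluorophosphonate-rhodamine, each step lasting 30 min at 37° C. Labelled proteins were separated by SDS-PAGE, and band fluorescence was imaged and quantified.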

[3] = target: T3, FAAH (Mus musculus (Mouse), UniProt O08914); test: In vitro competitive activity-based protein profiling (mouse brain membrane fraction or cell lysates), FAAH band; assay type: biochemical; conditions: mouse proteome; for inhibition at 1 µM: read-out: FAAH % Inh 1 μM (mouse); for IC50: competitive ABPP
T3 sequence (O08914 whole entry): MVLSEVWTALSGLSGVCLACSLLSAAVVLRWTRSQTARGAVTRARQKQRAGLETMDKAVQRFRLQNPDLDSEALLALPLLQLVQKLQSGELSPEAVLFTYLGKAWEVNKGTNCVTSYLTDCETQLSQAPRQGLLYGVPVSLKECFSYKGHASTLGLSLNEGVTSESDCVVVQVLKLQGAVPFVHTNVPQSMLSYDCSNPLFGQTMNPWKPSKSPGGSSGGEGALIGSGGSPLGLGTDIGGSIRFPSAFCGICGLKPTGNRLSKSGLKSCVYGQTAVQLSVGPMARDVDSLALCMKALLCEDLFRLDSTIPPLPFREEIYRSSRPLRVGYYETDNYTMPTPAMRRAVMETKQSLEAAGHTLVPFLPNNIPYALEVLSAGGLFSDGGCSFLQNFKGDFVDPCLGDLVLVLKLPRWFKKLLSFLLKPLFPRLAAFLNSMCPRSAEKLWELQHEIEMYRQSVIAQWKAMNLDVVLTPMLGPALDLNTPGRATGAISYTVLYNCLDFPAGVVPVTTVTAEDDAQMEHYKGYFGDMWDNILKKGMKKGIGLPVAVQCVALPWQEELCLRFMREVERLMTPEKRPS
Method in brief: as §1

[4] = target: MAGL (Homo sapiens (Human), UniProt Q99685); test: In vitro competitive activity-based protein profiling (human prefrontal cortex or cell membrane fractions; hMAGL expressed in HEK293T cells); assay type: biochemical; conditions: human proteome, competitive ABPP
Sequence of MAGL (Homo sapiens (Human), UniProt Q99685) (Q99685 whole entry): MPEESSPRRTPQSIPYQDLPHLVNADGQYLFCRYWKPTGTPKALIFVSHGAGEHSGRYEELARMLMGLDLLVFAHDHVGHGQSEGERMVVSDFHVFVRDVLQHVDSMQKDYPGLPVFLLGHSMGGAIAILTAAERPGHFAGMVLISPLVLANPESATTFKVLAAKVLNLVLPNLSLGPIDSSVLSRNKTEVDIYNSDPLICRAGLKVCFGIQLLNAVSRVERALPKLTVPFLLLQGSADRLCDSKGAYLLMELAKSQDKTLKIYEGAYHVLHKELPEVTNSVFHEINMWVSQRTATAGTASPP
Method in brief: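 Human prefrontal cortex or cell membrane proteomes (1.0-2.0 mg/mL), or lysates of HEK293T cells expressing hMAGL diluted into mock proteome, preincubated with inhibitor 30 min at 37° C. FP-Rh or JW912 probe then added for 30 min at room temperature. Residual labeling resolved by SDS-PAGE.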

[5] = target: T1, MAGL; test: Mouse brain proteomes from inhibitor treated mice (oral gavage, sacrificed 4 h after administration, ABPP analysis); assay type: in vivo, mouse (C57Bl/6J); conditions: 5 mg/kg oral gavage
Method in brief: (§2)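 Compounds were given by oral gavage to wild-type C57Bl/6J mice in a vehicle such as PEG400/Ethanol/PBS (7/2/1). Animals were sacrificed 4 h after dosing, and brain proteomes were prepared and analyzed by established ABPP methods. Values are % inhibition at 5 mg/kg.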

[6] = target: T3, FAAH; test: Mouse brain proteomes from inhibitor treated mice (oral gavage, sacrificed 4 h after administration, ABPP analysis), FAAH; assay type: in vivo, mouse (C57Bl/6J); conditions: 5 mg/kg oral gavage
Method in brief: as §2

[7] = target: T2, ABHD6; test: Mouse brain proteomes from inhibitor treated mice (oral gavage, sacrificed 4 h after administration, ABPP analysis), ABHD6; assay type: in vivo, mouse (C57Bl/6J); conditions: 5 mg/kg oral gavage
Method in brief: as §2

T1 sequence (O35678 whole entry): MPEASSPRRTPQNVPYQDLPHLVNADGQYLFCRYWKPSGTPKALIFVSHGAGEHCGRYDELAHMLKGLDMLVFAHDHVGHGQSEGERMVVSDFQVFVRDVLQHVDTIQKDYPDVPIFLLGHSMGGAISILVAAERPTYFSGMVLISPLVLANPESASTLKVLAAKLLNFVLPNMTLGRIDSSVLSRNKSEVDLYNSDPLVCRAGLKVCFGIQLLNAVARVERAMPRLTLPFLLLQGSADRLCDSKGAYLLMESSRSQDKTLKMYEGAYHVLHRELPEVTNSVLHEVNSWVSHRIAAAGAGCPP

| SMILES | inhibition at 1 µM [1] [%] | IC50 [1] [nM] | inhibition at 1 µM [2] [%] | IC50 [2] [nM] | inhibition at 1 µM [3] [%] | IC50 [3] [nM] | IC50 [4] [nM] | MAGL % Inh 5 mg/kg (mouse) [5] | FAAH % Inh 5 mg/kg (mouse) [6] | ABHD6 % Inh 5 mg/kg (mouse) [7] |
| --- | --- | --- | --- | --- | --- | --- | --- | --- | --- | --- |
| O=C(OC(C(F)(F)F)C(F)(F)F)N1CCC2(CCCN2Cc2ccc(C(F)(F)F)c(N3CCCC3)c2)CC1 [Example 134, 1,1,1,3,3,3-Hexafluoropropan-2-yl 1-(3-(pyrrolidin-1-yl)-4-(trifluoromethyl)benzyl)-1,8-diazaspiro[4.5]decane-8-carboxylate] | > 75 | < 100 | < 25 | > 1000 | < 25 | > 1000 | < 100 | ### (### is ≥75%) | # (# is <25%) | # (# is <25%) |
| O=C(O)c1cc(CN2CCCC23CCN(C(=O)OC(C(F)(F)F)C(F)(F)F)CC3)ccc1C(F)(F)F [Example 179, 5-((8-((1,1,1,3,3,3-Hexafluoropropan-2-yloxy)carbonyl)-1,8-diazaspiro[4.5]decan-1-yl)methyl)-2-(trifluoromethyl)benzoic acid] | > 75 | 100 to 1000 | < 25 | > 1000 | < 25 | > 1000 | < 100 | ### (### is ≥75%) | ## (## is equal to or greater than 25% but less than 75%) | # (# is <25%) |
| CS(=O)(=O)C1CCN(c2cc(C(F)(F)F)ccc2CN2CCCC23CCN(C(=O)OC(C(F)(F)F)C(F)(F)F)CC3)C1 (stereo not shown) [Example 193, 1,1,1,3,3,3-Hexafluoropropan-2-yl 1-(2-(3-(methylsulfonyl)pyrrolidin-1-yl)-4-(trifluoromethyl)benzyl)-1,8-diazaspiro[4.5]decane-8-carboxylate] | > 75 | – | < 25 | – | < 25 | – | < 100 | ## (## is equal to or greater than 25% but less than 75%) | # (# is <25%) | # (# is <25%) |
| O=C(O)C1CCN(Cc2cc(Cl)cc(CN3CCCC34CCN(C(=O)OC(C(F)(F)F)C(F)(F)F)CC4)c2)CC1 [Example 194, 1-(3-Chloro-5-((8-(((1,1,1,3,3,3-hexafluoropropan-2-yl)oxy)carbonyl)-1,8-diazaspiro[4.5]decan-1-yl)methyl)benzyl)piperidine-4-carboxylic acid] | > 75 | – | < 25 | – | < 25 | – | < 100 | ## (## is equal to or greater than 25% but less than 75%) | # (# is <25%) | # (# is <25%) |
| CC1(C(=O)O)CN(c2cc(CN3CCCC34CCN(C(=O)OC(C(F)(F)F)C(F)(F)F)CC4)cc(C(F)(F)F)c2)CCO1 (stereo not shown) [Example 195, 4-(3-((8-(((1,1,1,3,3,3-hexafluoropropan-2-yl)oxy)carbonyl)-1,8-diazaspiro[4.5]decan-1-yl)methyl)-5-(trifluoromethyl)phenyl)-2-methylmorpholine-2-carboxylic acid] | > 75 | < 100 | < 25 | > 1000 | < 25 | > 1000 | < 100 | # (# is <25%) | # (# is <25%) | # (# is <25%) |
| O=C(O)[C@@H]1CCCCN1c1cc(CN2CCCC23CCN(C(=O)OC(C(F)(F)F)C(F)(F)F)CC3)cc(C(F)(F)F)c1 [Example 196, (S)-1-(3-((8-(((1,1,1,3,3,3-Hexafluoropropan-2-yl)oxy)carbonyl)-1,8-diazaspiro[4.5]decan-1-yl)methyl)-5-(trifluoromethyl)phenyl)piperidine-2-carboxylic acid] | > 75 | – | < 25 | – | < 25 | – | < 100 | ### (### is ≥75%) | # (# is <25%) | # (# is <25%) |
| O=C(O)C1CN(c2cc(C(F)(F)F)ccc2CN2CCCC23CCN(C(=O)OC(C(F)(F)F)C(F)(F)F)CC3)CCO1 (stereo not shown) [Example 197, 4-(2-((8-(((1,1,1,3,3,3-Hexafluoropropan-2-yl)oxy)carbonyl)-1,8-diazaspiro[4.5]decan-1-yl)methyl)-5-(trifluoromethyl)phenyl)morpholine-2-carboxylic acid] | > 75 | 100 to 1000 | 25 to 75 | > 1000 | < 25 | > 1000 | < 100 | # (# is <25%) | # (# is <25%) | # (# is <25%) |
| O=C(O)C1CCN(c2cc(C(F)(F)F)ccc2CN2CCCC23CCN(C(=O)OC(C(F)(F)F)C(F)(F)F)CC3)C1 (stereo not shown) [Example 199] | > 75 | < 100 | 25 to 75 | > 1000 | < 25 | > 1000 | < 100 | ## (## is equal to or greater than 25% but less than 75%) | # (# is <25%) | # (# is <25%) |
| O=C(O)C1COCCN1c1cc(CN2CCCC23CCN(C(=O)OC(C(F)(F)F)C(F)(F)F)CC3)cc(C(F)(F)F)c1 (stereo not shown) [Example 200] | > 75 | – | < 25 | – | < 25 | – | < 100 | ## (## is equal to or greater than 25% but less than 75%) | # (# is <25%) | # (# is <25%) |
| N#Cc1cc(CN2CCCC23CCN(C(=O)OC(C(F)(F)F)C(F)(F)F)CC3)cc(N2CCC(C(=O)O)CC2)c1 [Example 210] | > 75 | – | < 25 | – | < 25 | – | < 100 | ### (### is ≥75%) | # (# is <25%) | ## (## is equal to or greater than 25% but less than 75%) |
| O=C(O)[C@@H]1CCCN(c2cc(C(F)(F)F)ccc2CN2CCC3(CCN(C(=O)OC(C(F)(F)F)C(F)(F)F)CC3)C2)C1 [Example 211] | > 75 | – | < 25 | – | < 25 | – | < 100 | ## (## is equal to or greater than 25% but less than 75%) | # (# is <25%) | # (# is <25%) |
| O=C(O)[C@@H]1CCCN(c2cc(C(F)(F)F)ccc2CN2CCCC23CCN(C(=O)OC(C(F)(F)F)C(F)(F)F)CC3)C1 [Example 214] | > 75 | – | < 25 | – | < 25 | – | < 100 | ### (### is ≥75%) | # (# is <25%) | # (# is <25%) |
| CC1(C(=O)O)CCCN(c2cc(C(F)(F)F)ccc2CN2CCC3(CCN(C(=O)OC(C(F)(F)F)C(F)(F)F)CC3)C2)C1 (stereo not shown) [Example 216] | > 75 | – | 25 to 75 | – | < 25 | – | < 100 | ## (## is equal to or greater than 25% but less than 75%) | # (# is <25%) | # (# is <25%) |
